The values below come from USRE49873E1, “APP specific bace inhibitors (ASBIs) and uses thereof” (BUCK INSTITUTE FOR RESEARCH ON AGING, priority 2012, dated 2024).

One series is described as follows: in vivo. Also noted: species or system mice. The following applies: mouse; for brain Cmax of galangin: sc, 10 mg/kg. The method, then:
The brain penetrance of galangin and progalangin were assessed in a standard PK comprising subcutaneous (Sub-Q) injection of 5 adult non-transgenic mice with 50 ul of a 5 mg/ml stock of compound in dimethylsulfoxide (DMSO) or a dose of 10 mg/kg for a 25 g mouse. Injected mice were anesthetized with ketamine/xylazine at 1, 2, 4, 6, and 8 hours and blood collected by cardiac puncture. The mice were then perfused with saline and brain tissue dissected and snap frozen on dry ice. Blood was centrifuged at 3000 rpm for 10 minutes and the plasma supernatant collected. Both plasma and the right hemibrain were sent to Integrated Analytical Solutions (IAS, Berkeley, Calif.) with a reference sample of compound for compound level analysis in tissue and plasma. The compound levels were determined using a LC-MS/MS approach.
CNS exposure studies were performed and consisted of a time-course design to collect heparinized plasma and brains. Following sc administration of the galangin or progalangin (compound-2) at 10 mg/kg, plasma and brain levels of the compounds were determined by quantitative LC/MS/MS methodology. Plasma samples were precipitated with acetonitrile:methanol (1:1) cocktail containing an internal standard. The brain samples were homogenized directly in ethylacetate or extracted from 5M guanidine homogenates with the liquid-liquid method. The resulting supernatant was evaporated to dryness and subjected to the LC/MS/MS analysis. For each compound 5 mice were used for the analysis. The brain-to-plasma ratios and plasma/brain Cmax levels were then determined (see, e.g., FIG. 8).

The subject of series [1] is Aβ1-40 and Aβ1-42 levels in hippocampal/entorhinal cortical tissue. As to the kind of experiment: Pilot efficacy testing in PDAPP (J20) AD model mice, Aβ ELISA. The series is classed as in vivo. The following applies: 40 mpk sc daily for 14 days, hippocampus and cortex, 40 mg/kg. The method, then:
Galangin and progalangin (PG-1) were dissolved in 10% solutol/15% DMSO/75% polyethylene glycol (PEG). Stock solutions were prepared at 10 mg/ml for each compound and 100 ul was injected subcutaneously daily for 14 days at a dose of 40 mkd. There were 5 PDAPP AD model J20 mice in both the galangin and progalangin groups, and 9 vehicle-only treated J20 controls. Mice were anesthetized, blood collected for plasma, and brain tissue collected as described above 2 hours after injection on the last day of treatment. The right hemibrain was further microdissected to isolate hippocampus and entorhinal cortex and this combined tissue was used for biochemical analysis. The remaining tissue and plasma was sent to IAS for compound level analysis.
Aβ1-42 and Aβ1-40 levels were determined using the hippocampal/entorhinal cortical tissue. Briefly, frozen tissue samples were weighed, and a 20% w/v sonicate prepared in 5M guandine-HCl/50 mM Tris, pH8. Sonication was performed with sample tubes in ice water, 4×5 seconds at 60 Hz, then 3×5 seconds at 80 Hz. Samples were then rotated at room temperature for 3 hours and frozen at −20° C. until assay. Invitrogen ELISA kits were used for Aβ1-40 and Aβ1-42 according to the manufacturer's instructions.

In series [2] the test system is APP-Gal4 transactivation in HEK293T cells. As to the kind of experiment: APP-Gal4/Mint3/TAZ transactivation assay. The format is cell-based. The following applies: Mint3 and TAZ present; galangin at 10 μM. The text has this:
(§1) FIGS. 7A and 7B illustrate inhibition of APP-Gal4 and APLP2-Gal4 transactivation by galangin. […] This transactivation was inhibited by Galangin and BACE inhibitor IV. FIG. 7B: Potent transactivation of transcription was also achieved with APLP2 fused to the Gal4 DNA binding domain when both Mint3 and TAZ were present. This transactivation was inhibited by Galangin and BACE inhibitor IV. […] The normalized luciferase activity is expressed as a percentage of the DMSO treated control (FIGS. 7A, 7B). Error bars indicate SEM. (*, p<0.05; **, p<0.01; ***, p<0.001; n=3, student t test).
(§2) This assay system is described by Orcholski et al. (2011) J. Alzheimers Dis., 23(4):689-699. Transactivation is achieved upon transfection with Mint3 and Taz. The ASBI was expected to inhibit only the transactivation of APP-Gal4, not that of APLP2-Gal4. For these experiments cells were co-transfected with a Gal4-luciferase reporter plasmid (to measure transactivation), a beta-galactosidase plasmid (to normalize for transfection efficiency), and the test plasmids identified. The normalized luciferase activity was expressed as fold induction over transcription by APP-Gal4 alone (FIG. 7A), or as fold induction over APLP2-Gal4 alone (FIG. 7B).
(§3) HEK293T cells were co-transfected with five plasmids: (1) pG5E1B-luc, 0.3 μg; (2) pCMV-LacZ, 0.1 μg; (3) pMst-APP (APP-Gal4) or pcDNA3.1-APLP2-Gal4, 0.3 μg; (4) pCMV5-Mint3, 1.0 μg; (5) pEF-N-FLAG-TAZ, 1.0 μg. Cells were harvested 48 hr after transfection in 0.2 ml per well Cell Culture Lysis Buffer (Promega), and their luciferase and β-galactosidase activities were determined with the Promega luciferase assay kit and the Promega β-galactosidase assay kit, respectively. The luciferase activity was standardized by the β-galactosidase activity to control for transfection efficiency and general effects on transcription. Transfections were performed at 80-90% cofluency in six-well plates using Lipofectamine 2000 (Invitrogen).

For series [3], the system named is APLP2-Gal4 transactivation in HEK293T cells. As to the kind of experiment: APLP2-Gal4/Mint3/TAZ transactivation assay. The series is classed as cell-based. The settings on record: Mint3 and TAZ present; galangin at 10 μM.
Text: as §1, §2, §3

As for `C[C@@H]1O[C@@H](OC[C@H]2O[C@@H](Oc3c(-c4ccc(O)c(O)c4)oc4cc(O)cc(O)c4c3=O)[C@H](O)[C@@H](O)[C@@H]2O)[C@H](O)[C@H](O)[C@H]1O` [Rutin], in “in vivo”, the brain penetration entry is reported as “does not cross the blood-brain barrier” and the “brain Cmax of galangin” value is reported as “no rutin was detectable in the brain”.
With `CC(=O)Oc1cc(OC(C)=O)c2c(=O)c(O)c(-c3ccccc3)oc2c1` [PG-1, 5,7-Diacetoxy-3-hydroxyflavone], in “in vivo”, the “galangin levels after PG-1 injection versus galangin itself” value is reported as “much higher”, the “plasma levels versus brain tissue levels” value is reported as “Plasma levels were greater than brain tissue levels” and the “brain Cmax of galangin” value was around 100 ng/g. Moreover, in series [1], the “Aβ1-40 (Aβ40) levels in brain” value is “more effective in vivo than galangin” and the “Aβ1-42 (Aβ42) levels in brain” value was “more effective in vivo than galangin”. Besides, in series [1] (listed as pro-galangin I), the “Aβ1-40 (Aβ40) levels in brain” value is on record as “slightly lowered” and the “Aβ1-42 (Aβ42) levels in brain” value is given as “slightly lowered”. In series [1] (listed as progalangin), the “Aβ1-40 (Aβ40) levels in brain” value is “reduction” and the “Aβ1-42 (Aβ42) levels in brain” value is on record as “reduction”.
For the compound BACE inhibitor IV [reference compound], in series [2], the APP-Gal4 transactivation entry was “inhibited”. Further, the APLP2-Gal4 transactivation entry in series [3] is “inhibited”.
